Experimental data from article PMC10787067, “EBF2 Links KMT2D‐Mediated H3K4me1 to Suppress Pancreatic Cancer Progression via Upregulating KLLN” (Advanced Science, 2023).

Assays:
[1] = tested on: SW1990‐luc xenografts; test: SW1990-luc xenografts in BALB/c nude mice; type: in vivo, Human (xenograft in BALB/c nude mice); conditions: n = 5, p < 0.01, two-way ANOVA, dose not given, Figure 5I-K
Experimental: BALB/c nude mice (4 weeks old) were purchased from the Animal Core Facility of Nanjing Medical University. Every 1 × 10^6 SW1990‐luc cells (SW1990 cells labeled with luciferase) were suspended in 100 µL of PBS and Matrigel (Corning) mixture, then subcutaneously injected into the right forelimb of nude mice. The length and width of tumor were measured every 2 or 3 days. Tumor volume was calculated using the formula: Volume = 0.5 × length × width^2. Luciferase signals in nude mice were measured at the first and fourth week after injection. The mice were sacrificed at 30 days for in vivo proliferation assay. Mice were anesthetized with isoflurane gas and sacrificed by cervical dislocation. Tumor tissues of these mice were collected for further analyses. Luciferase signals from D‐luciferin (Cat No. MB1834; MeilunBio, Dalian, China) were measured using IVIS Spectrum (PerkinElmer, USA) at indicated concentrations. The luciferase signal activity was quantitated using the software provided by the manufacturer.

[2] = tested on: H3K4me1; test: Western blot of H3K4me1 in PANC-1 cells; type: cell-based, Human; conditions: 0, 1, 10 or 100 μM GSK-LSD1, Figure S4D
[3] = tested on: KLLN; test: Western blot of KLLN in PANC-1 cells; type: cell-based, Human; conditions: 0, 1, 10 or 100 μM GSK-LSD1, Figure S4D
Experimental: (§1) SW1990 and PANC‐1 cells were isolated using lysate buffer containing protease inhibitors. Samples containing equal amounts of protein were separated by SDS‐PAGE. After electrophoresis, the proteins were transferred to a PVDF membrane (Millipore, Billerica, MA, USA) and blocked with 5% skim milk for 2 h at room temperature. An overnight incubation of membranes was made at 4 °C with primary antibodies against KMT2D (1:1000; Affinity, China), EBF2 (1:1000; Affinity), and KLLN (1:1000; Abcam, USA). After washing with 1× TBST for three times, a 2 h incubation of membranes was implemented with horseradish peroxidase (HRP)‐gemeled Affinipure Goat Anti‐Rabbit IgG (H + L) (1:10000; ProteinTech, China) or Peroxidase‐gemeled Affinipure Goat Anti‐Mouse IgG (H+L) (1:10000; ProteinTech) at room temperature. Proteins were visualized by chemiluminescence using an ECL kit (Thermo Fisher).

[4] = tested on: KLLN; test: Western blot of KLLN in SW1990 cells; type: cell-based, Human
Experimental: as §1

[5] = tested on: KLLN; test: Western blot and IHC of metastatic foci from treated mice, KLLN; type: in vivo, Human (xenograft in BALB/c nude mice); conditions: control vs GSK-LSD1-treated lung metastasis tissues, Figure 5L,M
[6] = tested on: SW1990 cells; test: Transwell migration and invasion, SW1990; type: cell-based, Human; conditions: 24 h, vs Vehicle, p < 0.01, Figure 5H
Experimental: (§2) Cell proliferation was determined by Cell Counting Kit‐8 (CCK‐8, Yeasen) and EdU Cell Proliferation Assay kit (Ribobio, Guangzhou, China). Colony formation was observed by staining with 0.1% crystal violet (Sangon Biotechnologies Inc., Shanghai, China). Cell migration and invasion were assessed using […] pore Transwell chambers with (for invasion assay) or without Matrigel (for migration assay). For migration assay, 5 × 10^4 SW1990 or 3 × 10^4 PANC‐1 cells were seeded into the upper chamber of the Transwell apparatus (Corning, USA) in serum‐free medium, and the medium supplemented with 10% FBS was added to the bottom chamber. For invasion assay, 10 × 10^4 SW1990 or 6 × 10^4 PANC‐1 cells were seeded into the upper Corning BioCoat Matrigel invasion chamber. After 24 h, the cells on the upper surface that had not passed through the polycarbonate filter were removed using a moistened cotton swab; the cells having migrated to the lower membrane surface were fixed in 100% methanol for 10 min, stained with 0.4% crystal violet for 15 min, and counted under a microscope (Nikon, Japan) at ×100 magnification. The cells were manually counted using Image J software. Three independent experiments were performed.

[7] = tested on: PANC‐1 cells; test: KLLN rescue experiments (CCK-8, colony-formation, Transwell), PANC-1; type: cell-based, Human; conditions: p < 0.01, Figure S4H-J
Experimental: as §2

[8] = tested on: PDX tumors; test: Patient-derived xenograft (PDX) model of PDAC; type: in vivo, Human (xenograft in immunodeficient nude mice)
Text: A PDX model was established by implanting tumor fragments into immunodeficient nude mice. Tumor fragments were derived from a PDAC patient with stage II ductal adenocarcinoma, who underwent surgery at the Second Affiliated Hospital of Nanjing Medical University. Informed consent was obtained from each patient, and all procedures involving human samples were approved by the Ethics Committee of the Second Affiliated Hospital of Nanjing Medical University.

[9] = tested on: PANC‐1 cells; test: Transwell migration and invasion, PANC-1; type: cell-based, Human; conditions: 24 h, vs Vehicle, p < 0.01, Figure S4G
Experimental: as §2

[10] = tested on: H3K4me1; test: Western blot of H3K4me1 in SW1990 cells; type: cell-based, Human
[11] = tested on: EBF2; test: Co-IP with H3K4me1 antibodies from GSK-LSD1-treated SW1990 cell lysates; type: cell-based, Human; conditions: vs vehicle, Figure 5P
Experimental: Co‐immunoprecipitation assay was performed as described previously.^[ [61] ^] Briefly, SW1990 cells were transfected with indicated constructs or treated with GSK‐LSD1, washed with cold phosphate buffered saline (PBS), and lysed with cold cell lysis buffer. Then, the lysates were incubated with appropriate specific antibodies or normal rabbit IgG at 4 °C overnight in constant rotation, followed by the addition of protein A/G Sepharose beads and incubation for 2 h at 4 °C. The beads were then washed five times by the lysis buffer. Bead‐bound proteins were resolved by SDS‐PAGE and detected by immunoblotting using indicated antibodies.

[12] = tested on: SW1990 cells; test: KLLN rescue experiments (CCK-8, colony-formation, Transwell), SW1990; type: cell-based, Human; conditions: p < 0.01, Figure 5Q-S
Experimental: as §2

[13] = 0, 1, 10, or 100 µM GSK-LSD1, Figure 5E

c1ccc([C@@H]2C[C@H]2NC2CCNCC2)cc1 [GSK‐LSD1]
xenograft size compared to control mice [1]: significantly smaller sizes of SW1990‐luc xenografts | H3K4me1 level, concentration dependence [2]: increased the levels of H3K4me1 and KLLN in a concentration‐dependent manner | KLLN level, concentration dependence [3]: increased the levels of H3K4me1 and KLLN in a concentration‐dependent manner | KLLN level, concentration dependence [4, 13]: increased the levels of H3K4me1 and KLLN in a concentration‐dependent manner | KLLN protein level ([4]; Western blot, concentration not given, Figure 4F): significant upregulation | KLLN in metastatic foci [5]: upregulation | invasion ([6]; Transwell with Matrigel): significantly inhibited | migration ([6]; Transwell without Matrigel): significantly inhibited | tumor-suppressive phenotype of GSK-LSD1 on knockdown of KLLN [7]: markedly attenuated | effect compared with Gemcitabine ([8]; PDX mice, n = 5, doses not given, Figure 5N,O): more favorable effects than Gemcitabine | PDX tumor size compared with control mice ([8]; n = 5, dose not given, Figure 5N): remarkably smaller tumors | invasion ([9]; Transwell with Matrigel): significantly inhibited | migration ([9]; Transwell without Matrigel): significantly inhibited | H3K4me1 level, concentration dependence [10, 13]: increased the levels of H3K4me1 and KLLN in a concentration‐dependent manner | H3K4me1 level in Co-IP experiment ([10]; vs vehicle, concentration not given, Figure 5P): increased H3K4me1 level | EBF2 co-immunoprecipitated with H3K4me1 ([11]; H3K4me1 antibodies): co‐immunoprecipitated more EBF2 | EBF2 expression ([11]; concentration not given): without affect EBF2 expression | tumor-suppressive phenotype of GSK-LSD1 on knockdown of KLLN [12]: markedly attenuated
